Tested on: HCT116 colorectal cancer cells
Experiment: Cisplatin sensitization assay (96 h MTS cell viability);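 further: compound concentration needed to lower the IC50 of Cisplatin alone by a set fold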
Format: cell-based
Settings: Cisplatin sensitization value
Summary of the method: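 HCT116 cells were dosed simultaneously with compound and cisplatin as a full matrix of 2-fold serial dilutions from 10 μM top final concentration. Incubation was 96 h at 37° C., 5% CO2, followed by 1 h with MTS reagent for the viability read-out. Sensitization values were binned into +++, ++ and + categories.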

SMILES	Cisplatin Sensitization Assay
Nc1nn2cc(F)cnc2c1C(=O)Nc1cncc(F)c1N1CCCCC1 [I-N-270, 2-amino-6-fluoro-N-(5-fluoro-4-(piperidin-1-yl)pyridin-3-yl)pyrazolo[1,5-a]pyrimidine-3-carboxamide]	+++ (Compounds with a Cisplatin sensitization value of <0.02 μM are marked with “+++.”)
Nc1nn2cc(Cl)cnc2c1C(=O)Nc1cnccc1N1CC[S+]([O-])CC1 [I-N-68, 2-amino-6-chloro-N-(4-(1-oxidothiomorpholino)pyridin-3-yl)pyrazolo[1,5-a]pyrimidine-3-carboxamide]	+++ (Compounds with a Cisplatin sensitization value of <0.02 μM are marked with “+++.”)
Cc1ncccc1-c1ccncc1NC(=O)c1c(N)nn2cc(F)cnc12 [I-C-20, 2-amino-6-fluoro-N-(2-methyl-[3,4′-bipyridin]-3′-yl)pyrazolo[1,5-a]pyrimidine-3-carboxamide]	+++ (Compounds with a Cisplatin sensitization value of <0.02 μM are marked with “+++.”)
N#CCc1cnc2c(C(=O)Nc3cnccc3O[C@@H]3CCOC3)c(N)nn2c1 [I-O-31, (R)-2-amino-6-(cyanomethyl)-N-(4-((tetrahydrofuran-3-yl)oxy)pyridin-3-yl)pyrazolo[1,5-a]pyrimidine-3-carboxamide]	+++ (Compounds with a Cisplatin sensitization value of <0.02 μM are marked with “+++.”)
CC(C#N)c1cnc2c(C(=O)Nc3cnccc3N3CCN(C4COC4)CC3)c(N)nn2c1 (stereo not shown) [I-N-143, 2-amino-6-(1-cyanoethyl)-N-(4-(4-(oxetan-3-yl)piperazin-1-yl)pyridin-3-yl)pyrazolo[1,5-a]pyrimidine-3-carboxamide]	++ (Compounds with a Cisplatin sensitization value >0.02 μM but <0.2 μM are marked with “++.”)
CN(C)[C@@H]1CCN(C(=O)C2CCN(c3c(F)cncc3NC(=O)c3c(N)nn4cc(F)cnc34)CC2)C1 [I-G-11, (R)-2-amino-N-(4-(4-(3-(dimethylamino)pyrrolidine-1-carbonyl)piperidin-1-yl)-5-fluoropyridin-3-yl)-6-fluoropyrazolo[1,5-a]pyrimidine-3-carboxamide]	+++ (Compounds with a Cisplatin sensitization value of <0.02 μM are marked with “+++.”)
Nc1nn2cc(F)cnc2c1C(=O)Nc1cnccc1-n1ccnc1 [I-N-7, N-(4-(1H-imidazol-1-yl)pyridin-3-yl)-2-amino-6-fluoropyrazolo[1,5-a]pyrimidine-3-carboxamide]	++ (Compounds with a Cisplatin sensitization value >0.02 μM but <0.2 μM are marked with “++.”)
COc1ccncc1NC(=O)c1c(N)nn2cc(CC#N)cnc12 [I-O-26, 2-amino-6-(cyanomethyl)-N-(4-methoxypyridin-3-yl)pyrazolo[1,5-a]pyrimidine-3-carboxamide]	++ (Compounds with a Cisplatin sensitization value >0.02 μM but <0.2 μM are marked with “++.”)
Nc1nn2cc(F)cnc2c1C(=O)Nc1cncc(F)c1N1CCN(C(=O)C2CNC2)CC1 [I-N-168, 2-amino-N-(4-(4-(azetidine-3-carbonyl)piperazin-1-yl)-5-fluoropyridin-3-yl)-6-fluoropyrazolo[1,5-a]pyrimidine-3-carboxamide]	+ (Compounds with a Cisplatin sensitization value >0.2 μM but <5 μM are marked with “+.”)
Nc1nn2cc(Cl)cnc2c1C(=O)Nc1cnccc1O[C@H]1CCNC1 [I-O-76, (S)-2-amino-6-chloro-N-(4-(pyrrolidin-3-yloxy)pyridin-3-yl)pyrazolo[1,5-a]pyrimidine-3-carboxamide]	++ (Compounds with a Cisplatin sensitization value >0.02 μM but <0.2 μM are marked with “++.”)
COCCN1CCN(c2c(F)cncc2NC(=O)c2c(N)nn3cc(F)cnc23)CC1 [I-N-127, 2-amino-6-fluoro-N-(5-fluoro-4-(4-(2-methoxyethyl)piperazin-1-yl)pyridin-3-yl)pyrazolo[1,5-a]pyrimidine-3-carboxamide]	+++ (Compounds with a Cisplatin sensitization value of <0.02 μM are marked with “+++.”)
CN1CCN(c2cc(N)ncc2NC(=O)c2c(N)nn3cc(Cl)cnc23)CC1 [I-N-50, 2-amino-N-(6-amino-4-(4-methylpiperazin-1-yl)pyridin-3-yl)-6-chloropyrazolo[1,5-a]pyrimidine-3-carboxamide]	+ (Compounds with a Cisplatin sensitization value >0.2 μM but <5 μM are marked with “+.”)
C[C@@H]1CN(C(=O)C2CCN(c3c(F)cncc3NC(=O)c3c(N)nn4cc(F)cnc34)CC2)CCN1C [I-G-50, (R)-2-amino-N-(4-(4-(3,4-dimethylpiperazine-1-carbonyl)piperidin-1-yl)-5-fluoropyridin-3-yl)-6-fluoropyrazolo[1,5-a]pyrimidine-3-carboxamide]	+++ (Compounds with a Cisplatin sensitization value of <0.02 μM are marked with “+++.”)
CS(=O)(=O)CC1CCN(c2ccncc2NC(=O)c2c(N)nn3cc(F)cnc23)CC1 [I-N-215, 2-amino-6-fluoro-N-(4-(4-((methylsulfonyl)methyl)piperidin-1-yl)pyridin-3-yl)pyrazolo[1,5-a]pyrimidine-3-carboxamide]	+++ (Compounds with a Cisplatin sensitization value of <0.02 μM are marked with “+++.”)
Nc1nn2cc(F)cnc2c1C(=O)Nc1cncc(F)c1N1CCC(C(=O)N2CCNC3(CC3)C2)CC1 [I-G-28, N-(4-(4-(4,7-diazaspiro[2.5]octane-7-carbonyl)piperidin-1-yl)-5-fluoropyridin-3-yl)-2-amino-6-fluoropyrazolo[1,5-a]pyrimidine-3-carboxamide]	+++ (Compounds with a Cisplatin sensitization value of <0.02 μM are marked with “+++.”)
N#CCc1cnc2c(C(=O)Nc3cnccc3N3CCC(N)CC3)c(N)nn2c1 [I-N-2, 2-amino-N-(4-(4-aminopiperidin-1-yl)pyridin-3-yl)-6-(cyanomethyl)pyrazolo[1,5-a]pyrimidine-3-carboxamide]	+++ (Compounds with a Cisplatin sensitization value of <0.02 μM are marked with “+++.”)
Nc1nn2cc(F)cnc2c1C(=O)Nc1cnccc1N1CCN2[C@@H](CCS2(=O)=O)C1 [I-N-247, (S)-2-amino-N-(4-(1,1-dioxidotetrahydro-2H-isothiazolo[2,3-a]pyrazin-5(3H)-yl)pyridin-3-yl)-6-fluoropyrazolo[1,5-a]pyrimidine-3-carboxamide]	+++ (Compounds with a Cisplatin sensitization value of <0.02 μM are marked with “+++.”)
Nc1nn2cc(F)cnc2c1C(=O)Nc1cncc(Cl)c1N1CCC(C(=O)N2CCNCC2)CC1 [I-G-48, 2-amino-N-(5-chloro-4-(4-(piperazine-1-carbonyl)piperidin-1-yl)pyridin-3-yl)-6-fluoropyrazolo[1,5-a]pyrimidine-3-carboxamide]	+++ (Compounds with a Cisplatin sensitization value of <0.02 μM are marked with “+++.”)
CC(C)N1CCN2CCN(c3ccncc3NC(=O)c3c(N)nn4cc(F)cnc34)CC2C1=O (stereo not shown) [I-N-245, 2-amino-6-fluoro-N-(4-(8-isopropyl-9-oxohexahydro-1H-pyrazino[1,2-a]pyrazin-2(6H)-yl)pyridin-3-yl)pyrazolo[1,5-a]pyrimidine-3-carboxamide]	++ (Compounds with a Cisplatin sensitization value >0.02 μM but <0.2 μM are marked with “++.”)
Nc1nn2cc(F)cnc2c1C(=O)Nc1cncc(F)c1N1CCC(C(=O)N2CCC(N3CCC3)CC2)CC1 [I-G-68, 2-amino-N-(4-(4-(4-(azetidin-1-yl)piperidine-1-carbonyl)piperidin-1-yl)-5-fluoropyridin-3-yl)-6-fluoropyrazolo[1,5-a]pyrimidine-3-carboxamide]	+++ (Compounds with a Cisplatin sensitization value of <0.02 μM are marked with “+++.”)
CN1CCN(CC2CCN(c3c(F)cncc3NC(=O)c3c(N)nn4cc(F)cnc34)CC2)C(=O)C1 [I-N-193, 2-amino-6-fluoro-N-(5-fluoro-4-(4-((4-methyl-2-oxopiperazin-1-yl)methyl)piperidin-1-yl)pyridin-3-yl)pyrazolo[1,5-a]pyrimidine-3-carboxamide]	+++ (Compounds with a Cisplatin sensitization value of <0.02 μM are marked with “+++.”)
N#CCc1cnc2c(C(=O)Nc3cnccc3OCCO)c(N)nn2c1 [I-O-33, 2-amino-6-(cyanomethyl)-N-(4-(2-hydroxyethoxy)pyridin-3-yl)pyrazolo[1,5-a]pyrimidine-3-carboxamide]	++ (Compounds with a Cisplatin sensitization value >0.02 μM but <0.2 μM are marked with “++.”)
Nc1nn2cc(F)cnc2c1C(=O)Nc1cnccc1N1CCC(C(=O)N2CC(F)(F)C2)CC1 [I-G-80, 2-amino-N-(4-(4-(3,3-difluoroazetidine-1-carbonyl)piperidin-1-yl)pyridin-3-yl)-6-fluoropyrazolo[1,5-a]pyrimidine-3-carboxamide]	+++ (Compounds with a Cisplatin sensitization value of <0.02 μM are marked with “+++.”)
C[C@@H]1CN(C(=O)C2CCN(c3c(F)cncc3NC(=O)c3c(N)nn4cc(F)cnc34)CC2)CCN1 [I-G-45, (R)-2-amino-6-fluoro-N-(5-fluoro-4-(4-(3-methylpiperazine-1-carbonyl)piperidin-1-yl)pyridin-3-yl)pyrazolo[1,5-a]pyrimidine-3-carboxamide]	+++ (Compounds with a Cisplatin sensitization value of <0.02 μM are marked with “+++.”)
CN1CCN2CCN(c3ccncc3NC(=O)c3c(N)nn4cc(Cl)cnc34)CC2C1 (stereo not shown) [I-N-61, 2-amino-6-chloro-N-(4-(8-methylhexahydro-1H-pyrazino[1,2-a]pyrazin-2(6H)-yl)pyridin-3-yl)pyrazolo[1,5-a]pyrimidine-3-carboxamide]	+++ (Compounds with a Cisplatin sensitization value of <0.02 μM are marked with “+++.”)

Reference: US11117900B2 (Vertex Pharmaceuticals Incorporated, priority 2012, dated 2021)
